Active and inactive are the calls of the source.
Legend:
[1] = target: T1, High affinity choline transporter 1 (Homo sapiens, UniProt Q9GZV3); assay: CHT inhibitors, dose response, cell-based, 5-point CRC, membrane potential dye (AID 504840); type: functional
T1 sequence (Q9GZV3 whole entry): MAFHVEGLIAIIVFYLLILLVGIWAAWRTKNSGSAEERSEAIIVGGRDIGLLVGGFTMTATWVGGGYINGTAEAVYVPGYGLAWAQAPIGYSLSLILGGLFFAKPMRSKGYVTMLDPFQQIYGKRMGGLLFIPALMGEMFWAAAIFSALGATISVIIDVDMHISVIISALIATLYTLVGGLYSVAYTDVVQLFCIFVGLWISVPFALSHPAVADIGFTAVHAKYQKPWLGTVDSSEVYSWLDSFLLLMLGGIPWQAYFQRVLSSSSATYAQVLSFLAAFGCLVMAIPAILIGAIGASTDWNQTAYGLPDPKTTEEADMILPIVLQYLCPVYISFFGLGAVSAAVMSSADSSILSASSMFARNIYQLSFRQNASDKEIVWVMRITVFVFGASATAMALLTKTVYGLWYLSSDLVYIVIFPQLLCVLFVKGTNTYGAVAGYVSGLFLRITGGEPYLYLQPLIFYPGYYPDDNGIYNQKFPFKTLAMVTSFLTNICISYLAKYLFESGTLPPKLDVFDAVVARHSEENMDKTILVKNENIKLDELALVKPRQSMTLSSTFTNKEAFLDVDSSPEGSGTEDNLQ

[2] = target: T1, High affinity choline transporter 1; assay: CHT inhibitors, dose response, cell-based, 10-point CRC, membrane potential dye (AID 588401); type: functional;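 further: membrane potential dye fluorescence of choline-evoked depolarization via CHT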
[3] = target: T2, Aminopeptidase N (Plasmodium falciparum FcB1/Columbia, UniProt O96935); assay: P. falciparum M1AAP inhibitors, biochemical, fluorogenic H-Leu-NHMec substrate, 1536-well (AID 1445); design: species or system Plasmodium falciparum 3D7, 3D7
T2 sequence (O96935 whole entry): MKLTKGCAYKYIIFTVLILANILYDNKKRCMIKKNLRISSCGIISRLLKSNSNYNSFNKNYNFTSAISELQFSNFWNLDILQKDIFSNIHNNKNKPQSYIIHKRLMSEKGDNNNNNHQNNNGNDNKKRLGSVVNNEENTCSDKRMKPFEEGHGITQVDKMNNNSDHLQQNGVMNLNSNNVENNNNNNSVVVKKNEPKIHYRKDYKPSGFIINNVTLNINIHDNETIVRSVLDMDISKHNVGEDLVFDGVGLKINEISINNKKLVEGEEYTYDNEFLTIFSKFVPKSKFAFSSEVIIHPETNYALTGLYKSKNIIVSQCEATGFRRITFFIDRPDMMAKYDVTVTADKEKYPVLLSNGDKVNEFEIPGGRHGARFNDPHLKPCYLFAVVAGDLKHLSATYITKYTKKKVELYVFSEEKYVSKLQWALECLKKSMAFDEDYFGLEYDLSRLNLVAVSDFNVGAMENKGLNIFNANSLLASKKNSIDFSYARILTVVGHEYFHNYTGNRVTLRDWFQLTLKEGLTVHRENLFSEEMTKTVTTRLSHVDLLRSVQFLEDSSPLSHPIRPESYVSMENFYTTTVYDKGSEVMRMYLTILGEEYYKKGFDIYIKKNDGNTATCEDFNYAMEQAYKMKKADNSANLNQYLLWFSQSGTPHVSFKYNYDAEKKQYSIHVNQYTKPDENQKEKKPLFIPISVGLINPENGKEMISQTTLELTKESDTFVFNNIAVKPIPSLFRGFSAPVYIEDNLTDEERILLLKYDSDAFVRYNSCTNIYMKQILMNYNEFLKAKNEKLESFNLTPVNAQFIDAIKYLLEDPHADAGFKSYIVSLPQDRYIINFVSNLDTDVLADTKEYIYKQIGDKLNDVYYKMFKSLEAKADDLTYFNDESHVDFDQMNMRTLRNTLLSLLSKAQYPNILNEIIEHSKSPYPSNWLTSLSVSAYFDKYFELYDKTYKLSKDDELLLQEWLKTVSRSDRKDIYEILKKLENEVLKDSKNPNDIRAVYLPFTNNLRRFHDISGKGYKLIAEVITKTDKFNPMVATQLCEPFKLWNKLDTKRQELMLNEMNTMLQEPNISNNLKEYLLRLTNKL

[4] = target: T3, ATP-dependent translocase ABCB1 (Homo sapiens, UniProt P08183); assay: ABCG2 efflux pump inhibitor potency, dose response, Ig-MXP3 cells, JC-1, flow cytometry, set 2 (AID 504566); type: functional; details: read-out: EC50_MICROM_;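 further: flow cytometry median green fluorescence of retained JC-1 dye; potency of efflux pump inhibition measured as rising substrate retention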
T3 sequence (P08183 whole entry): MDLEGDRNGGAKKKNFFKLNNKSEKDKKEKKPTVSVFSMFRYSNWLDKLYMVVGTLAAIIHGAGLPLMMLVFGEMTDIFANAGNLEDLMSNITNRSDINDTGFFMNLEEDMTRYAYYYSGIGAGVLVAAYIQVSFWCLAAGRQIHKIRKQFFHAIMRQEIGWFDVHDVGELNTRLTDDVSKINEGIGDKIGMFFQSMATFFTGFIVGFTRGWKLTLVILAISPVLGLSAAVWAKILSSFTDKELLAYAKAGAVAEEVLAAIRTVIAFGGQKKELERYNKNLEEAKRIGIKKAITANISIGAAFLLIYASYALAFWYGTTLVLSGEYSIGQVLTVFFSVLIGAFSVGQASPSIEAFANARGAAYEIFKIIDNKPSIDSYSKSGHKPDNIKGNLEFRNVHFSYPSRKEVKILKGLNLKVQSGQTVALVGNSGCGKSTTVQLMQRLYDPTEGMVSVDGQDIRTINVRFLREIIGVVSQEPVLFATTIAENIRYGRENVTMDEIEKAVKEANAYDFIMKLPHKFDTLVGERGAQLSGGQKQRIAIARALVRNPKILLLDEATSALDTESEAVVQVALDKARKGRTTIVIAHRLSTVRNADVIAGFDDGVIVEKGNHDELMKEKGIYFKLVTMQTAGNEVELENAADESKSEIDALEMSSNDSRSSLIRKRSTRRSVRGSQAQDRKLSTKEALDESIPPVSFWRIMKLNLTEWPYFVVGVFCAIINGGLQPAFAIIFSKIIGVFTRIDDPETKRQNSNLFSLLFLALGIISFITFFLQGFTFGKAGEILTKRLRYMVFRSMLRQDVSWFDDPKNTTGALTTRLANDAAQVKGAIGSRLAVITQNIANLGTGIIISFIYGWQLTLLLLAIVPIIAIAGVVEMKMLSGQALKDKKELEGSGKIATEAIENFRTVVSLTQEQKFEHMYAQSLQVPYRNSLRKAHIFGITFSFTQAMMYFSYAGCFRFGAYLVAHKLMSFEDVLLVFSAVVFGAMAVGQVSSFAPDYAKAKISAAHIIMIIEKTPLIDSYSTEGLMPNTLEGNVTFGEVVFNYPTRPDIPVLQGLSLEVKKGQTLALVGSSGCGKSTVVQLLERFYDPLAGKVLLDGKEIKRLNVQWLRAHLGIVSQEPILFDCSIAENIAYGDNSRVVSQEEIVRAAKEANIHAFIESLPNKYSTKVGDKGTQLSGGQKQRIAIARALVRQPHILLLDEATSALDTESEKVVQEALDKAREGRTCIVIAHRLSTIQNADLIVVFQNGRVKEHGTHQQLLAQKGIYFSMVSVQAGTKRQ

[5] = target: T3, ATP-dependent translocase ABCB1; assay: ABCB1 efflux inhibitor potency, dose response, Jurkat-DNR cells, JC-1, flow cytometry, set 2 (AID 504569); type: functional; details: read-out: EC50_MICROM_;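 further: potency of pump inhibitors that raise cellular JC-1 green fluorescence up to the nicardipine level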
[6] = CRF-BP/CRF-R2 complex antagonists, dose response, cell-based, uHTS hits, 384-well (AID 651639); type: functional, Homo sapiens; details: read-out: IC50_Mean
[7] = target: T4, Corticotropin-releasing factor receptor 2/Corticotropin-releasing factor-binding protein (Homo sapiens, UniProt P24387+Q13324); assay: Dose Response confirmation of uHTS hits for small molecule antagonists of the CRF-binding protein and CRF-R2 receptor complex.; type: functional; details: read-out: IC50_Mean
T4 sequence (Q13324 whole entry): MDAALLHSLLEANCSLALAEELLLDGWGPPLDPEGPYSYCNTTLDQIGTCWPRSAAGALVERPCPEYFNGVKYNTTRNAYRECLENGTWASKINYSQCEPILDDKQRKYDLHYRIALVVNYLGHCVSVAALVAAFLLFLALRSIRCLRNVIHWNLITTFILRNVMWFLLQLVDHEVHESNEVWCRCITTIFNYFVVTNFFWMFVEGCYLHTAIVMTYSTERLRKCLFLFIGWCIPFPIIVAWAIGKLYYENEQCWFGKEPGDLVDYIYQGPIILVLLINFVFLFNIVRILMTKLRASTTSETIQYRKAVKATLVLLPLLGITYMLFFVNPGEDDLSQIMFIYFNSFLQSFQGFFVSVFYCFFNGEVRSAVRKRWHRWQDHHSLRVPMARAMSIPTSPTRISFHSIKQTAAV
T4 sequence (P24387 whole entry): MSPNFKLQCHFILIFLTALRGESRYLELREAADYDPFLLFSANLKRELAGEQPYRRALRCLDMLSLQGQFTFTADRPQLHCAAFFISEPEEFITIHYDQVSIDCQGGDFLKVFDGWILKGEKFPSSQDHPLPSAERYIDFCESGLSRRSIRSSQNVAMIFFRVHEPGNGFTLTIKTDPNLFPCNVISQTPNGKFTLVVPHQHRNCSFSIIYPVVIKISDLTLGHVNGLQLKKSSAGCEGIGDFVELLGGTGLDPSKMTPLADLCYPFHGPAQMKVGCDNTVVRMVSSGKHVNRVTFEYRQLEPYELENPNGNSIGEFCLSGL

[8] = target: T4, Corticotropin-releasing factor receptor 2/Corticotropin-releasing factor-binding protein; assay: activators of CRF receptor 2 with binding protein – uHTS hits, confirmation (AID 602473); type: functional; details: read-out: EC50_Mean
[9] = target: T5, Apoptotic protease-activating factor 1 (Homo sapiens, UniProt O14727); assay: SAR analysis of small molecule Activators of Apaf-1 in a Fluorescent assay.; type: functional; details: read-out: EC50_Mean;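 further: caspase-3 cleavage of fluorogenic Rh110 DEVD substrate downstream of apoptosome activation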
T5 sequence (O14727 whole entry): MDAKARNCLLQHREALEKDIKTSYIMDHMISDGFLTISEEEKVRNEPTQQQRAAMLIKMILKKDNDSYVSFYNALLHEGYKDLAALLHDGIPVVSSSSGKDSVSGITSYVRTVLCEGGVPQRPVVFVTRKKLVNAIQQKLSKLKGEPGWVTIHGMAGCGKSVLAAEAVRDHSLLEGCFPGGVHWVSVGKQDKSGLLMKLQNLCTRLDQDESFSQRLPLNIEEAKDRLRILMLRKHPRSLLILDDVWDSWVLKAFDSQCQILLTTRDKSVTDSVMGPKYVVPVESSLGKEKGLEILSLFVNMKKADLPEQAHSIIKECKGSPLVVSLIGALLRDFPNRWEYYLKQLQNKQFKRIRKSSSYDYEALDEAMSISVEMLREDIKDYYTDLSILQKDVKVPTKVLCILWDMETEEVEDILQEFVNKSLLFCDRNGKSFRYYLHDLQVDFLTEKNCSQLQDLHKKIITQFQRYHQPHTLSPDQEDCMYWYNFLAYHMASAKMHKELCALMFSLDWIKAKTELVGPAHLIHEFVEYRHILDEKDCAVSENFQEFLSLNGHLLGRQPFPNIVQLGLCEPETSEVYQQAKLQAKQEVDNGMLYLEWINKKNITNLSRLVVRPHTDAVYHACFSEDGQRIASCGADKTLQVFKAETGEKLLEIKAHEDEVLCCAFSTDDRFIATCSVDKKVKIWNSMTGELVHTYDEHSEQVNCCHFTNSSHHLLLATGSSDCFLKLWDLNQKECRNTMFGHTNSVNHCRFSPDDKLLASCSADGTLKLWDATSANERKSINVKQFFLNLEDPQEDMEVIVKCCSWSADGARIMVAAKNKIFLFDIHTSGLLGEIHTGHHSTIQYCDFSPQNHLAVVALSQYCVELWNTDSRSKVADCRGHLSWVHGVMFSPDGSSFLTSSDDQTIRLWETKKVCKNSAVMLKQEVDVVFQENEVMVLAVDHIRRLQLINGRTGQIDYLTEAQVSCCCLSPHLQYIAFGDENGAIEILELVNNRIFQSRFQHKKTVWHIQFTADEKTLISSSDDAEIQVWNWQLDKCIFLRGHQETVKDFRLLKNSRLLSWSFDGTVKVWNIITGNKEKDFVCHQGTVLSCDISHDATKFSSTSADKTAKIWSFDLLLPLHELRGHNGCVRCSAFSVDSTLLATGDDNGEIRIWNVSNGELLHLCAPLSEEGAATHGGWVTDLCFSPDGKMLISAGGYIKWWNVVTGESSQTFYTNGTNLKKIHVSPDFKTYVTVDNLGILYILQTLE

[10] = inhibitors of intracellular T. cruzi replication, confirmation, NIH3T3 host cells, beta-gal luminescence (AID 2044); type: functional, cell-based;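 further: intracellular parasites grown in NIH/3T3 mouse fibroblasts as host cells; luminescent beta-galactosidase reporter signal from transgenic T. cruzi replicating inside host cells; inhibitors lower the luminescence signal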
[11] = cytotoxicity toward NIH3T3 fibroblasts, dose response, counter-screen, cell-based, ATP luminescence, mouse fibroblasts (AID 2010); type: functional;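 further: cells exposed to compound for about 90 hours before reading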
[12] = target: Protein Wnt-3a (Mus musculus, UniProt P27467); assay: Wnt3a-driven reporter signaling inhibition, dose response, selectivity assay for Gli-SUFU antagonist project, Wnt-LIGHT cells, luminescence (AID 651570); type: functional; details: read-out: IC50_Mean;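 further: Wnt-LIGHT reporter cells stimulated with conditioned medium from Wnt3a-producing cells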
Chain of Protein Wnt-3a (P27467 whole entry): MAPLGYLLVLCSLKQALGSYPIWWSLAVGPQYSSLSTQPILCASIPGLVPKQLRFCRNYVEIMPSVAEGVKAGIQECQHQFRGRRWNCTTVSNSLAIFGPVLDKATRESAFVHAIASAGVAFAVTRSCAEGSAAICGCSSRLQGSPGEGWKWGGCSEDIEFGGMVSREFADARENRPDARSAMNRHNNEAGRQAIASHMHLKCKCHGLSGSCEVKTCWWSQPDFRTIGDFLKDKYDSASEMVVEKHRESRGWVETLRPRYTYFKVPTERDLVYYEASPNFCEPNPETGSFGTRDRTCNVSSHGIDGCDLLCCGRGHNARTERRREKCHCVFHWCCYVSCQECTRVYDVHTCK

With `Cc1cccc(C)c1-n1cccc1/C=C1/C(=N)N2C(=NC1=O)SN=C2S(C)(=O)=O` the IC50 [1] was 8.3 µM (active), the IC50 [2] was 4.47 µM (active) and the IC50 [3] was 34.4 µM (active).
In the case of `O=C(Cc1ccccc1)N1CCN(c2cc(-c3ccccc3)nc3cc(-c4cccc(Cl)c4)nn23)CC1`, the EC50 [4] is reported as 7.42 µM (active) and the EC50 [5] is reported as 3.62 µM (active).
For `CC(C)N(C(=O)[C@H]1C[C@H](CC(=O)NCCC2=CCCCC2)C(=O)N2CCc3c([nH]c4ccc(Cl)cc34)[C@]12C)C(C)C`, the IC50 [6] was 4.28 µM (active), the IC50 [7] was 3.6 µM (active) and the EC50 [8] was > 53 µM (inactive).
In the case of `CCOc1ccccc1NC(=O)CCS(=O)(=O)c1cc2c(cc1Cl)NC(=O)CO2`, the EC50 [9] is reported as > 100 µM (inactive).
For `c1ccc(-c2c[n+](-c3ccccc3)c3n2CCS3)cc1`, the EC50 [10] was 2.27 µM (active), the EC50 [11] was > 60 µM (inconclusive) and the IC50 [12] was 3.05 µM (active).

— ChEMBL document CHEMBL1201862, “PubChem BioAssay data set” (2004)
